{"source": "patent US7202280B2", "about": "“Methods for the treatment and prevention of pancreatitis and for induction of liver regeneration” (priority 2002, dated 2007)", "system": "SSAT", "assay": "SSAT activity in SSAT transgenic rats after polyamine analogues without or with MDL72527", "assay_type": "in vivo, rat", "experimental": "FIGS. 9A–9B. Effect of polyamine analogues without or with MDL72527 on hepatic SSAT (FIG. 9A) and PAO (FIG. 9B) activities in SSAT transgenic rats. The rats were treated with the drugs as described in the legend for FIGS. 8A–8D. There were three to four animals in each group.\nThe production of transgenic Wistar rats (UKUR30) and mice (UKU181) harboring metallothionein-SSAT fusion gene (Suppola, S., Pietilä, M., Parkkinen, J. J., Korhonen, V. P., Alhonen, L., Halmekytö, M., Porter, C. W., and Jänne, J. (1999) Biochem. J. 338, 311–316) has been described earlier (Alhonen, L., Parkkinen, J. J., Keinänen, T., Sinervirta, R., Herzig, K. H., and Jänne, J. (2000) Proc. Natl. Acad. Sci. U.S.A. 97, 8290–8295; Lukkarinen, J., Gröhn, O., Sinervirta, R., Järvinen, A., Kauppinen, R. A., Jänne, J., and Alhonen, L. (1997) Stroke 28, 639–645). Partial hepatectomy was carried out according to the original method of Higgins and Anderson (Higgins, G. H., and Anderson, R. M. (1931) Arch. Pathol. 12, 186–202). […]\nPAO activity was measured to verify the effectiveness of MDL72527 treatment and to determine whether the analogues have any effect on its activity. […]"}
{"smiles": "CC(N)CCNCCCCNCCC(C)N", "note": "(stereo not drawn) [bis-α-methylspermine, 1,12-dimethylspermine]", "values": [{"measurement": "hepatic SSAT activity", "setting": "analogue 25 mg/kg i.p. twice", "result": "significantly increased hepatic SSAT activity"}, {"measurement": "hepatic SSAT activity", "setting": "analogue combined with MDL72527", "result": "further enhanced"}]}
